Measurements: US10351530B2, “Arylcyclohexyl pyrazoles as NRF2 regulators” (GlaxoSmithKline Intellectual Property Development Limited, priority 2015, dated 2019)

Experiments:
[1] = system: NQO1 specific enzyme activity in BEAS-2B cells; assay: BEAS-2B NQO1 MTT Assay; format: cell-based; conditions: NQO1 specific activity induction
Method in brief: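 BEAS-2B cells exposed to compound for 48 h at 37 °C, 5% CO2, then lysed. NQO1 activity in crude lysate read kinetically by MTT cocktail absorbance at 570 nm over 30 min. pEC50 from ΔOD/min versus log concentration, 3-parameter fit.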

NRF2/Keap1 = molecular target: T1, NRF2/Keap1 (Homo sapiens, UniProt Q14145); assay: NRF2-Keap1 TR-FRET Low Protein Assay (full length NRF2 and full length Keap1); format: binding; conditions: low protein: 1.25 nM Keap1 FlagHis, 2.5 nM biotin-NRF2 added
T1 construct: full length NRF2 protein and full length Keap1 protein (Keap1 exists a dimer) are used
T1 sequence (Q14145 whole entry): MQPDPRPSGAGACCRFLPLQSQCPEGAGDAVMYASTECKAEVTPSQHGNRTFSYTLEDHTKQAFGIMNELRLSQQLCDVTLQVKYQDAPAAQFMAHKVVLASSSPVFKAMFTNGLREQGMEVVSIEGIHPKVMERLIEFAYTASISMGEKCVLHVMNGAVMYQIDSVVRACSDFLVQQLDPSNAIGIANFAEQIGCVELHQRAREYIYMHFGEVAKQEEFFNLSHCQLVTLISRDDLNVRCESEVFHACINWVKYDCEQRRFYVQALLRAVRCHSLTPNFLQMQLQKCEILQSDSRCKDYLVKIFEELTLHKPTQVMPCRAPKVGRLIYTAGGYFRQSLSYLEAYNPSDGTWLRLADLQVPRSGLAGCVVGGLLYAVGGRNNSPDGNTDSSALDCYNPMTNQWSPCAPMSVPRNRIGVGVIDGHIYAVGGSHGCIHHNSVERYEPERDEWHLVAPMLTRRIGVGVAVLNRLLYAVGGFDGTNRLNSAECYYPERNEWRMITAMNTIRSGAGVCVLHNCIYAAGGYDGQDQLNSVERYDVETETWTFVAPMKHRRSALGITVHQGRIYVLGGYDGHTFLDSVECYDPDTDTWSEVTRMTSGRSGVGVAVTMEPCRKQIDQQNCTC
Excerpt: In the NRF2-Keap1 TR-FRET (time-resolved fluorescence resonance energy transfer) low protein assay, full length NRF2 protein and full length Keap1 protein (Keap1 exists a dimer) are used. The assay detects a compound's ability to displace the binding of Keap1 FlagHis with biotinylated Avi-NRF2 protein. Biotin-NRF2 binds to streptavidin-europium (a component of the detection mix) and Keap1 FlagHis is recognized by anti-Flag APC (allophycocyanin) antibody (also a component of the detection mix). If binding occurs between the two proteins, there will be an energy transfer from the Eu+3 (donor) at 615 nm to the APC (acceptor) at 665 nm. A potential NRF2 inhibitor will cause a reduction in the TR-FRET signal by interfering with the binding of Keap1 to NRF2.
Ten nanoliters of 100× compound dose response curves (serial 3-fold dilutions) in DMSO are stamped using an Echo liquid handling system (Labcyte) into 384-well, low volume, black assay plates (Greiner, #784076), with DMSO in columns 6 and 18. An additional 90 nl DMSO is added to each well, to bring the total volume to 100 nl per well. The top concentration of compound is located in columns 1 and 13, with the serial dilutions going across the row. All reagents are diluted in assay buffer (50 mM Tris, pH 8.0, 5 mM MgCl2, 100 mM NaCl, 0.005% BSA, 1 mM DTT, and 2 mM CHAPS. The BSA, DTT, and CHAPS are added to the assay buffer on the day of assay. Using a Multidrop Combi (Thermo Electron Corporation) equipped with a metal tip dispenser, 5 ul of 1.25 nM Keap1 FlagHis protein is added to all wells of the compound plate, with the exception of the wells in column 18. Wells in column 18 receive 5 ul of assay buffer instead. Plates are centrifuged at 500 rpm for 1 minute, covered with a plate lid, and incubated at 37° C. for 2.25 hours. Plates are then removed from the incubator and allowed to cool to RT for 15 minutes. Five microliters of 2.5 nM biotin-NRF2 protein is then added to all wells of the plates and the plates are spun at 500 rpm for 1 minute, followed by incubating at 4° C. for 1.25 hours. The plates are then allowed to warm to RT for 15 minutes, followed by the addition of 10 ul of detection mix (1 nM Streptavidin Eu+ W1024 and 5 ug/ml mouse anti-DYKDDDDK IgG conjugated to SureLight APC antibody; both from Columbia Biosciences) to all wells. Plates are spun at 500 rpm for 1 minute, incubated for 1 hour at RT, and read on an Envision plate reader using a 320 nm excitation filter and 615 nm and 665 nm emission filters. Compound response (% inhibition) and potency (pIC50) are calculated based on the ratio of the two emissions (665 nm/615 nm) and then the transformed data is normalized against controls in the assay (control 1=1% DMSO in the presence of NRF2 and Keap1 protein and control 2=1% DMSO in the presence of only the NRF2 protein). Data analysis is handled using the software package Abase XE (Surrey, United Kingdom). The % inhibition values are calculated from the ratio (transformed) data by the equation: 100−(100*(compound response-average control 2)/(average control 1−average control 2)). For calculation of pIC50s, Abase XE uses a four parameter equation.

IC50 (NRF2/Keap1) [nM]	SMILES	EC50 ([1]; Homo sapiens, BEAS-2B, 48 h) [nM]	EC50 ([1]; 48 hours) [nM]
10 to 100	CCCCC1CCCN1C(=O)C1CCCC(c2cccc(-n3ncc(C(=O)O)c3C3CC3)c2)C1 (racemic) [Example 8c, 1-{3-[3-(2-Butylpyrrolidine-1-carbonyl)cyclohexyl]phenyl}-5-cyclopropyl-1H-pyrazole-4-carboxylic Acid]	100 to 1000	
10 to 100	CC(C)CCC1CCCN1C(=O)C1CCCC(c2cccc(-n3ncc(C(=O)O)c3C3CC3)c2)C1 (racemic) [Example 11, 5-Cyclopropyl-1-(3-{3-[2-(3-methylbutyl)pyrrolidine-1-carbonyl]cyclohexyl}phenyl)-1H-pyrazole-4-carboxylic Acid]	100 to 1000	
< 10	CCCC[C@@H]1CCCN1C(=O)[C@H]1CCC[C@@H](c2cccc(-n3ncc(C(=O)O)c3C3CC3)c2)C1 [Example 17f, 1-{3-[(1R,3S)-3-[(2R)-2-Butylpyrrolidine-1-carbonyl]cyclohexyl]phenyl}-5-cyclopropyl-1H-pyrazole-4-carboxylic Acid]	10 to 100	
10000 to 100000	CCCCC1CCc2cnn([C@@H]3CCC[C@@H](c4cccc(-n5ncc(C(=O)O)c5C5CC5)c4)C3)c21 (stereo partly drawn) [Example 38, 1-(3-((1,3-trans)-3-(6-Butyl-5,6-dihydrocyclopenta[c]pyrazol-1(4H)-yl)cyclohexyl)phenyl)-5-cyclopropyl-1H-pyrazole-4-carboxylic Acid]		100 to 1000

The remaining lines, values behind:

SMILES	IC50 (NRF2/Keap1) [nM]	EC50 ([1]; Homo sapiens, BEAS-2B, 48 h) [nM]	EC50 ([1]; 48 hours) [nM]
O=C(O)c1cnn(-c2cccc(C3CCCC(C(=O)N4CCCC4C4CC4)C3)c2)c1C1CC1 (racemic) [Example 12, 5-cyclopropyl-1-{3-[3-(2-cyclopropylpyrrolidine-1-carbonyl)cyclohexyl]phenyl}-1H-pyrazole-4-carboxylic Acid]	10 to 100	100 to 1000	
CC1(C)CCc2cnn([C@@H]3CCC[C@@H](c4cccc(-n5ncc(C(=O)O)c5C5CC5)c4)C3)c21 (racemic) [Example 23, 5-Cyclopropyl-1-(3-(t-3-(6,6-dimethyl-5,6-dihydrocyclopenta[c]pyrazol-1(4H)-yl)cyclohexyl)phenyl)-1H-pyrazole-4-carboxylic Acid]	1000 to 10000	100 to 1000	
CCOC[C@@H]1CCCN1C(=O)C1CCCC(c2cccc(-n3ncc(C(=O)O)c3C3CC3)c2)C1 (single isomer, unassigned) [Example 18g]	< 10		100 to 1000
O=C(O)c1cnn(-c2cccc(C3=CC(C(=O)N4CCCCCC4)CCC3)c2)c1C1CC1 (stereo not drawn) [Example 19, 1-(5′-(Azepane-1-carbonyl)-2′,3′,4′,5′-tetrahydro-[1,1′-biphenyl]-3-yl)-5-cyclopropyl-1H-pyrazole-4-carboxylic Acid]	100 to 1000	1000 to 10000	
Cn1cc(C2CC2c2c(C(=O)O)cnn2-c2cccc([C@@H]3CCC[C@H](n4ncc5c4C(C)(C)CC5)C3)c2)nn1 (stereo partly drawn) [Example 39, 1-(3-((1R,3S)-3-(6,6-Dimethyl-5,6-dihydrocyclopenta[c]pyrazol-1(4H)-yl)cyclohexyl)phenyl)-5-(2-(1-methyl-1H-1,2,3-triazol-4-yl)cyclopropyl)-1H-pyrazole-4-carboxylic Acid]	< 10	100 to 1000	
Cn1cc(C2CC2c2c(C(=O)O)cnn2-c2cccc([C@H]3CCC[C@H](n4ncc5c4C(C)(C)CC5)C3)c2)nn1 (stereo partly drawn) [Example 40, 1-(3-((1,3-trans)-3-(6,6-Dimethyl-5,6-dihydrocyclopenta[c]pyrazol-1(4H)-yl)cyclohexyl)phenyl)-5-(2-(1-methyl-1H-1,2,3-triazol-4-yl)cyclopropyl)-1H-pyrazole-4-carboxylic Acid]	10 to 100	1000 to 10000	
CCCCC1CCCC1N(C)C(=O)C1CCCC(c2cccc(-n3ncc(C(=O)O)c3C3CC3)c2)C1 (stereo not drawn) [Example 41, 1-(3-(3-((2-Butylcyclopentyl)(methyl)carbamoyl)cyclohexyl)phenyl)-5-cyclopropyl-1H-pyrazole-4-carboxylic Acid]	100 to 1000	100 to 1000	
CCCCC1CCCN1C(=O)C1CCCC(c2cccc(-n3ncc(C(=O)O)c3C3CC3c3cn(C)nn3)c2)C1 (stereo not drawn) [Example 42, 1-(3-(3-(2-Butylpyrrolidine-1-carbonyl)cyclohexyl)phenyl)-5-(2-(1-methyl-1H-1,2,3-triazol-4-yl)cyclopropyl)-1H-pyrazole-4-carboxylic Acid]	< 10	1000 to 10000	
